Laboratory results reported in patent US6576656B1, “Oxindole derivative” (Sumitomo Pharmaceuticals Co., Ltd., priority 1998, dated 2003).
Like-named read-outs stand apart in the source and are kept apart here.

Tests used:
[1] = increase in the weight of rats after oral administration for 9 days; format: in vivo, rat; conditions: 10 mg/kg/day×2 orally for 9 days, 11-week-old F 344/N rats (6/group); p<0.01; distilled water group 13.5±2.3 g
Procedure: The compound of Example 74 (10 mg/kg/day×2) were administered orally to 11-week-old F 344/N rats (6/group) for 9 days and increase in the weight of each rat was measured.

[2] = system: rat pituitary cells; assay: growth hormone releasing activity from rat pituitary cells in vitro (GH measured by RIA); format: cell-based; conditions: read-out: EC50 (GH releasing efficacy)
Procedure: Compounds of the present invention were evaluated for their growth hormone releasing activity from rat pituitary cells in vitro in accordance with the method described in the literature (R. G. Smith et al., Science, 260, 1640 (1993)). Pituitary glands removed from 7-week-old Wistar/ST male rats were washed with HBSS (Hank's balanced salt solution) three times and minced into small pieces (ca. 1 mm^2) using a pair of scissors. […] An enzyme solution (0.1 mL per a pituitary gland) was added and the cell dispersion was carried out in a water bath at 37° C. for ca 20-30 min, during which time the digested mixture was mixed by successive up-take and down-take of the suspension using a pipette, every 5 minutes. The resulting cell suspension was centrifuged at 1200 rpm for 2-3 min at room temperature and the supernatant fluid was discarded. A cultured medium was added and the resulting cell suspension was again centrifuged at 1200 rpm for 2-3 min at room temperature and the supernatant fluid was discarded. This procedure was repeated another 2 times. […] The culture medium was discarded and an assay medium (0.1 mL) was added. The incubation was continued for 1.5 h and the cells were washed with the assay medium. […] The supernatant fluid was recovered and the GH content present was measured by RIA (radioimmunoassay). An aliquot of the solution was diluted to 0.05 mL with a RIA buffer which consisted of PBS (pH 7.3) containing 1% BSA, 0.1% NaN3 and 25 mM EDTA. […] Cell membrane fractions containing protein A were added and the mixture was allowed to stand for 20 min and centrifuged. The supernatant fluid was removed and the precipitates were washed with the RIA buffer. The ^125I content in the precipitates was measured. The GH concentration in the sample was calculated from the standard curve made by using the standard GH sample. The EC50 values of the test compounds were determined using recurrent calculation from the following equation, where X is the concentration of the test compound, Y is the GH concentration at the given assay, and B is the EC50 value. C means recurrently calculated GH concentration in the absence of the test compound and A+C means recurrently calculated GH concentration when a maximum amount of the test compound is present. […] The culture medium used here consisted of DMEM (Dulbecco's Modified Eagle's Medium) containing 10% horse serum, 2.5% fetal bovine serum, 1% nonessential amino acids, 0.01% streptomycin and penicillin (100 IU/mL). The cultured medium described above was adjusted to pH 7.3 by adding a 25 mM HEPES buffer and the resulting solution was used as the assay medium. […] The resulting mixture was used as the test compound solution. […]

CCN(CC)CCN1C(=O)C(O)(c2ccccc2Cl)c2c1cc(C(N)=O)cc2C(F)(F)F (single isomer, unassigned; (+)) [Example 74, (+)-1-(2-Diethylaminoethyl)-4-trifluoromethyl-6-carbamoyl-3-hydroxy-3-(2-chlorophenyl)oxindole]
increase in the weight [1]: 19.5 ± 2.1 g | EC50 ([2]; Rattus norvegicus, 0.25 h): 0.5 nM

CCN(CC)CCN1C(=O)C(O)(c2ccccc2F)c2c(Br)cccc21 (centres unmarked) [Example 21, 4-Bromo-1-(2-diethylaminoethyl)-3-hydroxy-3-(2-fluorophenyl)oxindole]
EC50 ([2]; Rattus norvegicus, 0.25 h): 4 nM

CCN(CC)CCN1C(=O)C(O)(c2ccccc2Cl)c2c1cc(C#CCCC(=O)N1CCOCC1)cc2C(F)(F)F (centres unmarked) [Example 70, 1-(2-Diethylaminoethyl)-4-trifluoromethyl-6-(4-morpholinocarbonyl-1-butynyl)-3-hydroxy-3-(2-chlorophenyl)oxindole]
EC50 ([2]; Rattus norvegicus, 0.25 h): 5 nM

CCN(CC)CCN1C(=O)C(O)(c2ccc(Cl)cc2Cl)c2c1cc(C(N)=O)cc2C(F)(F)F (centres unmarked) [Example 91, 1-(2-Diethylaminoethyl)-4-trifuoromethyl-6-carbamoyl-3-hydroxy-3-(2,4-dichlorophenyl)oxindole]
EC50 ([2]; cultured pituitary cells of 7-week-old Wistar/ST male rats, 15 min at 37° C., GH by RIA): 1.2 nM
